In the supplement of paper PMC4862054:
Several values for one entry are separate records, joined by “and”; a condition that tells them apart may be missing. Equal values may be shown once.

Tests used:
Experiment in all cases: normalised viability (% of control), CellTiter-Blue; higher = more viable cells (about 100 = DMSO control)
Details in all cases: incubation time: 72 h
[1] = test system: HCC1143
Outline: (§1)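 Compound dissolved in 5 µl medium was pre-loaded into 384-well plates, and breast cancer cell lines in 20 µl suspension were seeded on top and incubated 72 h. After adding 2.5 µl CellTiter-Blue reagent for 2 h at 37 °C, fluorescence was read at 560/590 nm. Plates were normalised to vehicle (100) and a positive kill control (0), with Z'-factor quality control. Each value is normalised viability at a single listed concentration from the series.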

[2] = test system: MFM-223
Outline: as §1

[3] = test system: MDA-MB-231
Outline: as §1

[4] = test system: BT-549
Outline: as §1

[5] = test system: SK-BR-3
Outline: as §1

[6] = test system: HDQ-P1
Outline: as §1

[7] = test system: MDA-MB-453
Outline: as §1

[8] = test system: DU-4475
Outline: as §1

[9] = test system: MDA-MB-468
Outline: as §1

[10] = test system: HCC1937
Outline: as §1

[11] = test system: CAL-85-1
Outline: as §1

[12] = test system: CAL-120
Outline: as §1

[13] = test system: HCC1599
Outline: as §1

[14] = test system: CAL-51
Outline: as §1

[15] = test system: Hs578T
Outline: as §1

[16] = test system: BT-474
Outline: as §1

[17] = test system: CAL-148
Outline: as §1

[18] = test system: MDA-MB-436
Outline: as §1

CCc1c2c(nc3ccc(OC(=O)N4CCC(N5CCCCC5)CC4)cc13)-c1cc3c(c(=O)n1C2)COC(=O)[C@]3(O)CC [Irinotecan]
Details	normalised viability
[1], 10 nM	74.2% and 87.3%
[1], 1000 nM	91.4% and 95.9%
[1], 10000 nM	47.7% and 62.6%
[2], 10 nM	88.5% and 97%
[2], 1000 nM	100% and 99.8%
[3], 10 nM	85.2% and 94.5%
[3], 1000 nM	84.7% and 89.4%
[3], 10000 nM	72.8% and 78.7%
[4], 10 nM	80.8% and 86%
[4], 1000 nM	82.2% and 84.3%
[4], 10000 nM	71% and 62%
[5], 10 nM	92.4% and 108%
[5], 10000 nM	36.6% and 41.3%
[6], 3 nM	109% and 101%
[6], 30 nM	99.4% and 104%
[6], 100 nM	99.8% and 101%
[7], 3 nM	101% and 124%
[7], 30 nM	85.5% and 96.2%
[7], 100 nM	99.8% and 110%
[8], 3 nM	111% and 115%
[8], 30 nM	87.3% and 103%
[8], 100 nM	101% and 93.7%
[9], 10 nM	106% and 105%
[9], 1000 nM	76% and 87.3%
[9], 10000 nM	35.5% and 42.8%
[10], 10 nM	110% and 91.4%
[10], 1000 nM	54.7% and 60.4%
[10], 10000 nM	27.8% and 10.4%
[11], 3 nM	94.6% and 96.1%
[11], 30 nM	78.8% and 92.5%
[11], 100 nM	86.4% and 103%
[12], 10 nM	83.3% and 96.8%
[12], 1000 nM	68.2% and 89.1%
[12], 10000 nM	47.4% and 55.8%
[13], 10 nM	81.2% and 102%
[13], 1000 nM	74.3% and 81.7%
[13], 10000 nM	57.8% and 78.1%
[14], 3 nM	106% and 120%
[14], 30 nM	99% and 110%
[14], 100 nM	98.4% and 106%
[15], 10 nM	98.6% and 100%
[15], 1000 nM	83% and 95.2%
[16], 10 nM	102% and 114%
[16], 1000 nM	106% and 109%
[16], 10000 nM	97.2% and 105%
[17], 3 nM	77.4% and 98.8%
[17], 30 nM	90.3% and 101%
[17], 100 nM	80.5% and 99.7%
[18], 10 nM	89.1% and 93%
[18], 1000 nM	79.6% and 92.3%

COc1cc2ncnc(Nc3ccc(F)c(Cl)c3)c2cc1OCCCN1CCOCC1 [Gefitinib]
Details	normalised viability
[1], 10 nM	65.4% and 86.2%
[1], 1000 nM	64.3% and 84.5%
[1], 10000 nM	68.2% and 68.7%
[2], 10 nM	89.2% and 87.1%
[2], 1000 nM	92.2% and 89%
[2], 10000 nM	71.9% and 64.2%
[3], 10 nM	83.8% and 98.3%
[3], 1000 nM	94.6% and 114%
[3], 10000 nM	81.1% and 77%
[4], 10 nM	92.3% and 89.6%
[4], 1000 nM	89% and 101%
[4], 10000 nM	65.2% and 59.6%
[5], 10 nM	88.1% and 97.7%
[5], 1000 nM	67.2%
[5], 10000 nM	20.8% and 20.5%
[6], 3 nM	88.5% and 105%
[6], 30 nM	87% and 110%
[6], 100 nM	91% and 109%
[7], 3 nM	113% and 111%
[7], 30 nM	85.4% and 90.8%
[7], 100 nM	88.2% and 89.2%
[8], 3 nM	89.8% and 92.1%
[8], 30 nM	85.6% and 75.6%
[8], 100 nM	99.3% and 83.1%
[9], 10 nM	97.6% and 107%
[9], 1000 nM	57.8% and 65.9%
[9], 10000 nM	38.7% and 38.4%
[10], 1000 nM	101% and 100%
[10], 10000 nM	61.1% and 79.5%
[11], 3 nM	90.7% and 85.5%
[11], 30 nM	84.7% and 89.6%
[11], 100 nM	88.5% and 85.5%
[12], 10 nM	76.8% and 88.1%
[12], 1000 nM	76% and 85.9%
[12], 10000 nM	60% and 62.1%
[13], 10 nM	90.8% and 106%
[13], 1000 nM	75.2% and 81.4%
[13], 10000 nM	64.6% and 70.1%
[14], 3 nM	107% and 110%
[14], 30 nM	104% and 106%
[14], 100 nM	108% and 102%
[15], 10 nM	100% and 105%
[15], 1000 nM	91.4% and 112%
[15], 10000 nM	77.4% and 74.4%
[16], 10 nM	104% and 116%
[16], 1000 nM	58.7% and 65.5%
[16], 10000 nM	27.3% and 22.7%
[17], 3 nM	83% and 87.9%
[17], 30 nM	96.2% and 85.9%
[17], 100 nM	94.4% and 90.2%
[18], 10 nM	90.6% and 82.3%
[18], 1000 nM	88.3% and 81.4%
[18], 10000 nM	69.9% and 62%

CO[C@H]1C[C@@H]2CC[C@@H](C)[C@@](O)(O2)C(=O)C(=O)N2CCCC[C@H]2C(=O)O[C@H]([C@H](C)C[C@@H]2CC[C@@H](OP(C)(C)=O)[C@H](OC)C2)CC(=O)[C@H](C)/C=C(\C)[C@@H](O)[C@@H](OC)C(=O)[C@H](C)C[C@H](C)/C=C/C=C/C=C/1C [Ridaforolimus]
normalised viability [%]
Details	0.3 nM	1 nM	3 nM	10 nM	100 nM	1000 nM
[1]	–	71.5	–	–	56.1	56.8
[2]	–	56.3	–	–	45	43.3
[3]	–	86.4	–	–	81.8	70.4
[4]	–	62.3	–	–	62.9	56.8
[5]	–	79.8	–	–	51	42.4
[6]	96.2	–	90.1	74.4	–	–
[7]	85.4	–	30	24.5	–	–
[8]	100	–	61.7	57.9	–	–
[9]	–	66.4	–	–	59.3	60.4
[10]	–	52.4	–	–	62.5	69.5
[11]	68	–	57.1	59.5	–	–
[12]	–	70	–	–	50	46.9
[13]	–	105	–	–	98.7	72.5
[14]	90.1	–	56.2	38.6	–	–
[15]	–	62.9	–	–	57.2	54.3
[16]	–	75.5	–	–	63	61.7
[17]	79.9	–	43.8	36.6	–	–
[18]	–	81.3	–	–	94.5	79

Cc1ccc(NC(=O)c2ccc(CN3CCN(C)CC3)cc2)cc1Nc1nc(-c2cccnc2)cs1 [Masitinib]
normalised viability [%]
Details	3 nM	10 nM	30 nM	100 nM	1000 nM	10000 nM
[1]	–	77.4	–	–	88.7	85.5
[2]	–	89.2	–	–	93.7	92.5
[3]	–	96.7	–	–	91.1	50.4
[4]	–	94.2	–	–	100	51.2
[5]	–	99.6	–	–	102	25.2
[6]	94	–	92.9	99.5	–	–
[7]	112	–	123	105	–	–
[8]	109	–	91.4	95.5	–	–
[9]	–	93.3	–	–	105	53.4
[10]	–	97.3	–	–	99.5	84.8
[11]	94.8	–	75.5	90.8	–	–
[12]	–	82.4	–	–	81.8	79.3
[13]	–	86.2	–	–	97.6	95.8
[14]	106	–	100	97.5	–	–
[15]	–	113	–	–	113	81.4
[16]	–	105	–	–	101	50.1
[17]	80.9	–	82.8	90.6	–	–
[18]	–	97.5	–	–	111	72.4
